Each block holds one compound with its values, some of them ahead of it.
Legend:
Hepatocyte [1] = assay: (§1) Intrinsic clearance in human hepatocytes measured per 10^6 cells; format: ADME, cell-based
Hepatocyte [2] = assay: (§2) Intrinsic clearance in rat hepatocytes measured per 10^6 cells; format: ADME, cell-based
Hepatocyte [3] = assay: (§3) Intrinsic clearance in mouse hepatocytes measured per 10^6 cells; format: ADME, cell-based
[4] = Intrinsic clearance in dog hepatocytes measured per 10^6 cells; format: ADME, cell-based, Canis lupus familiaris, Hepatocyte
[5] = as §1; format: ADME, cell-based, Hepatocyte; conditions: read-out: CLH
[6] = Clearance in rat at 0.5 mg/kg, iv; format: ADME, organism-based; set-up: dose 0.5 mg/kg, route intravenous; conditions: in vivo
[7] = Half life in rat at 0.5 mg/kg, iv; format: ADME, organism-based; set-up: dose 0.5 mg/kg, route intravenous; conditions: in vivo
[8] = as §2; format: ADME, cell-based, Hepatocyte; conditions: read-out: CLH
[9] = as §3; format: ADME, cell-based, Hepatocyte; conditions: read-out: CLH
[10] = (§4) Drug metabolism in mouse hepatocytes assessed as (2S,3S,4S,5R,6S)-6-(2-((2R,5R,6R)-4-((S)-2-(tert-butylsulfonyl)-1-cyclopropylethyl)-6-(3-chlorophenyl)-5-(4-chlorophenyl)-3-oxomorpholin-2-yl)acetoxy)-3,4,5-trihydroxytetrahydro-2H-pyran-2-carboxylic acid formation at 10 uM by LC-MS/MS analysis; format: ADME, cell-based, Hepatocyte
[11] = Drug metabolism in rat hepatocytes assessed as (2S,3S,4S,5R,6S)-6-(2-((2R,5R,6R)-4-((S)-2-(tert-butylsulfonyl)-1-cyclopropylethyl)-6-(3-chlorophenyl)-5-(4-chlorophenyl)-3-oxomorpholin-2-yl)acetoxy)-3,4,5-trihydroxytetrahydro-2H-pyran-2-carboxylic acid formation at 10 uM by LC-MS/MS analysis; format: ADME, cell-based, Hepatocyte
[12] = Drug metabolism in dog hepatocytes assessed as (2S,3S,4S,5R,6S)-6-(2-((2R,5R,6R)-4-((S)-2-(tert-butylsulfonyl)-1-cyclopropylethyl)-6-(3-chlorophenyl)-5-(4-chlorophenyl)-3-oxomorpholin-2-yl)acetoxy)-3,4,5-trihydroxytetrahydro-2H-pyran-2-carboxylic acid formation at 10 uM by LC-MS/MS analysis; format: ADME, cell-based, Canis lupus familiaris, Hepatocyte
[13] = as §4, with “cynomolgus monkey” for “mouse”; format: ADME, cell-based, Macaca fascicularis, Hepatocyte
[14] = Drug metabolism in human hepatocytes assessed as (2S,3S,4S,5R,6S)-6-(2-((2R,5R,6R)-4-((S)-2-(tert-butylsulfonyl)-1-cyclopropylethyl)-6-(3-chlorophenyl)-5-(4-chlorophenyl)-3-oxomorpholin-2-yl)acetoxy)-3,4,5-trihydroxytetrahydro-2H-pyran-2-carboxylic acid formation at 10 uM by LC-MS/MS analysis; format: ADME, cell-based, Hepatocyte
[15] = Drug metabolism in mouse hepatocytes assessed as 2-((2R,5R,6R)-6-(3-chlorophenyl)-5-(4-chlorophenyl)-4-((S)-1-cyclopropyl-2-(1-hydroxy-2-methylpropan-2-ylsulfonyl)ethyl)-3-oxomorpholin-2-yl)acetic acid formation at 10 uM by LC-MS/MS analysis; format: ADME, cell-based, Hepatocyte
[16] = Drug metabolism in rat hepatocytes assessed as 2-((2R,5R,6R)-6-(3-chlorophenyl)-5-(4-chlorophenyl)-4-((S)-1-cyclopropyl-2-(1-hydroxy-2-methylpropan-2-ylsulfonyl)ethyl)-3-oxomorpholin-2-yl)acetic acid formation at 10 uM by LC-MS/MS analysis; format: ADME, cell-based, Hepatocyte
[17] = Drug metabolism in dog hepatocytes assessed as 2-((2R,5R,6R)-6-(3-chlorophenyl)-5-(4-chlorophenyl)-4-((S)-1-cyclopropyl-2-(1-hydroxy-2-methylpropan-2-ylsulfonyl)ethyl)-3-oxomorpholin-2-yl)acetic acid formation at 10 uM by LC-MS/MS analysis; format: ADME, cell-based, Canis lupus familiaris, Hepatocyte
[18] = Drug metabolism in cynomolgus monkey hepatocytes assessed as 2-((2R,5R,6R)-6-(3-chlorophenyl)-5-(4-chlorophenyl)-4-((S)-1-cyclopropyl-2-(1-hydroxy-2-methylpropan-2-ylsulfonyl)ethyl)-3-oxomorpholin-2-yl)acetic acid formation at 10 uM by LC-MS/MS analysis; format: ADME, cell-based, Macaca fascicularis, Hepatocyte
[19] = Drug metabolism in human hepatocytes assessed as 2-((2R,5R,6R)-6-(3-chlorophenyl)-5-(4-chlorophenyl)-4-((S)-1-cyclopropyl-2-(1-hydroxy-2-methylpropan-2-ylsulfonyl)ethyl)-3-oxomorpholin-2-yl)acetic acid formation at 10 uM by LC-MS/MS analysis; format: ADME, cell-based, Hepatocyte

Compound: CC[C@@H](CS(=O)(=O)C(C)(C)C)N1C(=O)[C@@](C)(CC(=O)O)C[C@H](c2cccc(Cl)c2)[C@H]1c1ccc(Cl)cc1
hepatocyte CLint (Hepatocyte [1]): 15 µL/min/1e6 cells | hepatocyte CLint (Hepatocyte [2]): 6.7 µL/min/1e6 cells | hepatocyte CLint (Hepatocyte [3]): 18 µL/min/1e6 cells | hepatocyte CLint [4]: 68 µL/min/1e6 cells

Compound: CC[C@@H](CN(c1ccccc1)S(=O)(=O)C1CC1)N1C(=O)[C@@H](CC(=O)O)O[C@H](c2cccc(Cl)c2)[C@H]1c1ccc(Cl)cc1
hepatocyte CLint [5]: 3.3 µL/min/1e6 cells

Compound: CC[C@@H](CN(c1ccccc1F)S(=O)(=O)C1CC1)N1C(=O)[C@@H](CC(=O)O)O[C@H](c2cccc(Cl)c2)[C@H]1c1ccc(Cl)cc1
hepatocyte CLint [5]: < 0.1 µL/min/1e6 cells

Compound: CC[C@@H](CN(c1ccc(F)cc1F)S(=O)(=O)C1CC1)N1C(=O)[C@@H](CC(=O)O)O[C@H](c2cccc(Cl)c2)[C@H]1c1ccc(Cl)cc1
hepatocyte CLint [5]: 4.8 µL/min/1e6 cells

Compound: CC[C@@H](CN(c1ccccc1F)S(C)(=O)=O)N1C(=O)[C@@H](CC(=O)O)O[C@H](c2cccc(Cl)c2)[C@H]1c1ccc(Cl)cc1
hepatocyte CLint [5]: 4.7 µL/min/1e6 cells

Compound: CC[C@@H](CS(=O)(=O)C(C)C)N1C(=O)[C@@H](CC(=O)O)O[C@H](c2cccc(Cl)c2)[C@H]1c1ccc(Cl)cc1
hepatocyte CLint [5]: 2.1 µL/min/1e6 cells

Compound: CC[C@@H](CS(=O)(=O)CC(C)(C)C)N1C(=O)[C@@H](CC(=O)O)O[C@H](c2cccc(Cl)c2)[C@H]1c1ccc(Cl)cc1
hepatocyte CLint [5]: 8.6 µL/min/1e6 cells

Compound: CC[C@@H](CS(=O)(=O)C1CCCC1)N1C(=O)[C@@H](CC(=O)O)O[C@H](c2cccc(Cl)c2)[C@H]1c1ccc(Cl)cc1
hepatocyte CLint [5]: 12 µL/min/1e6 cells

Compound: CC[C@@H](CS(=O)(=O)c1ccccc1)N1C(=O)[C@@H](CC(=O)O)O[C@H](c2cccc(Cl)c2)[C@H]1c1ccc(Cl)cc1
hepatocyte CLint [5]: 10 µL/min/1e6 cells

Compound: CC[C@@H](CS(=O)(=O)N(C)C)N1C(=O)[C@@H](CC(=O)O)O[C@H](c2cccc(Cl)c2)[C@H]1c1ccc(Cl)cc1
hepatocyte CLint [5]: 19 µL/min/1e6 cells

Compound: C[C@@H](CS(=O)(=O)C(C)(C)C)N1C(=O)[C@@H](CC(=O)O)O[C@H](c2cccc(Cl)c2)[C@H]1c1ccc(Cl)cc1
hepatocyte CLint [5]: 0.7 µL/min/1e6 cells

Compound: CC(C)(C)S(=O)(=O)C[C@H](C1CC1)N1C(=O)[C@@H](CC(=O)O)O[C@H](c2cccc(Cl)c2)[C@H]1c1ccc(Cl)cc1
hepatocyte CLint [5]: 1 µL/min/1e6 cells | hepatocyte CLint [8]: 3 µL/min/1e6 cells | hepatocyte CLint [9]: 6 µL/min/1e6 cells | hepatocyte CLint ([4]; read-out: CLH): 13 µL/min/1e6 cells | clearance [6]: 5.83 mL/min/kg | half-life [7]: 5.7 h | Drug metabolism [10]: metabolite_detected | Drug metabolism [11]: metabolite_detected | Drug metabolism [12]: metabolite_notdetected | Drug metabolism [13]: metabolite_detected | Drug metabolism [14]: metabolite_notdetected | Drug metabolism [15]: metabolite_detected | Drug metabolism [16]: metabolite_detected | Drug metabolism [17]: metabolite_notdetected | Drug metabolism [18]: metabolite_detected | Drug metabolism [19]: metabolite_notdetected

Other lines, results leading:

hepatocyte CLint [5]: 7 µL/min/1e6 cells
Compound: CC[C@@H](CN(c1ccc(F)cc1)S(=O)(=O)C1CC1)N1C(=O)[C@@H](CC(=O)O)O[C@H](c2cccc(Cl)c2)[C@H]1c1ccc(Cl)cc1

hepatocyte CLint [5]: 15 µL/min/1e6 cells
Compound: CC[C@@H](CN(c1ccccc1F)S(=O)(=O)C(C)C)N1C(=O)[C@@H](CC(=O)O)O[C@H](c2cccc(Cl)c2)[C@H]1c1ccc(Cl)cc1

hepatocyte CLint [5]: 1.9 µL/min/1e6 cells | hepatocyte CLint (Hepatocyte [2]): 1.8 µL/min/1e6 cells | hepatocyte CLint (Hepatocyte [3]): 12 µL/min/1e6 cells | hepatocyte CLint [4]: 15.5 µL/min/1e6 cells | clearance [6]: 3.83 mL/min/kg | half-life [7]: 4.1 h
Compound: CC[C@@H](CS(=O)(=O)C(C)(C)C)N1C(=O)[C@@H](CC(=O)O)O[C@H](c2cccc(Cl)c2)[C@H]1c1ccc(Cl)cc1

hepatocyte CLint [5]: 6.6 µL/min/1e6 cells
Compound: CC[C@@H](CS(=O)(=O)C1COC1)N1C(=O)[C@@H](CC(=O)O)O[C@H](c2cccc(Cl)c2)[C@H]1c1ccc(Cl)cc1

hepatocyte CLint [5]: 4.7 µL/min/1e6 cells | clearance [6]: 7.17 mL/min/kg | half-life [7]: 4 h
Compound: CC(C)(C)S(=O)(=O)C[C@H](CC(F)(F)F)N1C(=O)[C@@H](CC(=O)O)O[C@H](c2cccc(Cl)c2)[C@H]1c1ccc(Cl)cc1

hepatocyte CLint [5]: 1.7 µL/min/1e6 cells | clearance [6]: 1.83 mL/min/kg | half-life [7]: 6 h
Compound: CC(C)[C@@H](CS(=O)(=O)C(C)(C)C)N1C(=O)[C@@H](CC(=O)O)O[C@H](c2cccc(Cl)c2)[C@H]1c1ccc(Cl)cc1

hepatocyte CLint [5]: 2.1 µL/min/1e6 cells
Compound: CC(C)(C)[C@@H](CS(=O)(=O)C(C)(C)C)N1C(=O)[C@@H](CC(=O)O)O[C@H](c2cccc(Cl)c2)[C@H]1c1ccc(Cl)cc1
